Values of other authors in patent US7112576B1, “Compositions and methods for cryopreservation of peripheral blood lymphocytes” (Regents of the University of Minnesota, priority 1999, dated 2006).

System: patients who received cryopreserved autologous cell grafts
Conditions: attributed to the infusion of DMSO

- patients exhibiting dyspnea: 83%
- patients exhibiting transient hypertension: 96%
Structure (SMILES): C[S+](C)[O-] [DMSO, dimethylsulfoxide]
- patients exhibiting decreased heart rates: 98%
